Assay results published in US11053204B2, “Pyrimidinyloxy benzene derivatives as herbicides” (FMC Corporation, priority 2015, dated 2021).

Experiments:
Type in all cases: in vivo
[1] = system: ragweed (common ragweed, Ambrosia elatior); test: Test A postemergence, visual injury rating; settings: 0 is no effect, 100 is complete control; for Ragweed plant response rating: 0 to 100 scale, approximately 10 days
In short: (§1)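 Greenhouse pot test, loam/sand soil. Formulation: non-phytotoxic solvent mix plus surfactant. Pre: directed spray onto soil after sowing. Post: plants at 1–2 leaf, 2–10 cm. Rated visually vs untreated controls at ~10 d, 0 (no effect) to 100 (complete control).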

kochia (Kochia scoparia) [2] = test: Test A postemergence, visual injury rating; settings: 0 is no effect, 100 is complete control; for Kochia plant response rating: 0 to 100 scale, approximately 10 days
In short: as §1

[3] = system: barnyardgrass (Echinochloa crus-galli); test: Test A postemergence, visual injury rating; settings: 0 is no effect, 100 is complete control
In short: as §1

[4] = system: pigweed (Amaranthus retroflexus); test: Test A postemergence, visual injury rating; settings: 0 is no effect, 100 is complete control; for Pigweed plant response rating: 0 to 100 scale, approximately 10 days
In short: as §1

corn (Zea mays) = test: Test A postemergence, visual injury rating; settings: 0 is no effect, 100 is complete control
In short: as §1

[5] = system: blackgrass (Alopecurus myosuroides); test: Test A postemergence, visual injury rating; settings: 0 is no effect, 100 is complete control
In short: as §1

[6] = system: Italian ryegrass (Lolium multiflorum); test: Test A postemergence, visual injury rating; settings: 0 is no effect, 100 is complete control; for Ryegrass, Italian plant response rating: 0 to 100 scale, approximately 10 days
In short: as §1

[7] = system: giant foxtail (Setaria faberii); test: Test A postemergence, visual injury rating; settings: 0 is no effect, 100 is complete control
In short: as §1

[8] = system: galium (catchweed bedstraw, Galium aparine); test: Test A postemergence, visual injury rating; settings: 0 is no effect, 100 is complete control
In short: as §1

[9] = system: wheat (Triticum aestivum); test: Test A postemergence, visual injury rating; settings: 0 is no effect, 100 is complete control; for Wheat plant response rating: 0 to 100 scale, approximately 10 days
In short: as §1

[10] = system: sedge, umbrella (small-flower umbrella sedge, Cyperus difformis); test: Test B flooded paddy test, plant response rating; settings: 250 g ai/ha; Flood; scale of 0 to 100 where 0 is no effect and 100 is complete control; 13 to 15 days
In short: (§2)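 Ratings were visual and made relative to untreated controls after 13 to 15 greenhouse days.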

[11] = system: barnyardgrass (Echinochloa crus-galli); test: Test B flooded paddy test, plant response rating; settings: 250 g ai/ha; Flood; scale of 0 to 100 where 0 is no effect and 100 is complete control; 13 to 15 days
In short: as §2

rice (Oryza sativa) = test: Test B flooded paddy test, plant response rating; settings: 250 g ai/ha; Flood; scale of 0 to 100 where 0 is no effect and 100 is complete control; 13 to 15 days
In short: as §2

[12] = system: ducksalad (Heteranthera limosa); test: Test B flooded paddy test, plant response rating; settings: 250 g ai/ha; Flood; scale of 0 to 100 where 0 is no effect and 100 is complete control; 13 to 15 days
In short: as §2

[13] = system: ragweed (common ragweed, Ambrosia elatior); test: Test A preemergence, visual injury rating; settings: for Ragweed plant response rating: 0 to 100 scale (0 no effect, 100 complete control)
In short: as §1

kochia (Kochia scoparia) [14] = test: Test A preemergence, visual injury rating; settings: for Kochia plant response rating: 0 to 100 scale (0 no effect, 100 complete control)
In short: as §1

[15] = system: barnyardgrass (Echinochloa crus-galli); test: Test A preemergence, visual injury rating; settings: for Barnyardgrass plant response rating: 0 to 100 scale (0 no effect, 100 complete control)
In short: as §1

[16] = system: pigweed (Amaranthus retroflexus); test: Test A preemergence, visual injury rating; settings: for Pigweed plant response rating: 0 to 100 scale (0 no effect, 100 complete control)
In short: as §1

[17] = system: Italian ryegrass (Lolium multiflorum); test: Test A preemergence, visual injury rating; settings: for Ryegrass, Italian plant response rating: 0 to 100 scale (0 no effect, 100 complete control)
In short: as §1

[18] = system: giant foxtail (Setaria faberii); test: Test A preemergence, visual injury rating; settings: for Foxtail, Giant plant response rating: 0 to 100 scale (0 no effect, 100 complete control)
In short: as §1

[19] = 31 g ai/ha, 0 to 100 scale, approximately 10 days
[20] = 31 g ai/ha, 0 to 100 scale, 0 no effect, 100 complete control

`CC(=NOC(C)C)c1c(F)cccc1Oc1ncc(Cl)cn1` [Compound 76] was tested. Which “Ragweed plant response rating” value ([1]; 31 g ai/ha) did it give?
The value was 0.

And the “Ragweed plant response rating” value ([1]; 125 g ai/ha)?
The value was 0.

And the “Kochia plant response rating” value (kochia (Kochia scoparia) [2]; 31 g ai/ha)?
The value was 0.

And the “Kochia plant response rating” value (kochia (Kochia scoparia) [2]; 125 g ai/ha)?
The value was 0.

What about the “Barnyardgrass plant response rating” value [3, 19] of the same compound?
Its value is 0.

And the “Barnyardgrass plant response rating (0 to 100 scale)” value ([3]; 125 g ai/ha)?
The value was 0.

What about the “Pigweed plant response rating” value ([4]; 31 g ai/ha) of the same compound?
The value was 0.

What about the “Pigweed plant response rating” value ([4]; 125 g ai/ha) of the same compound?
Its value is 30.

What about the “Corn plant response rating” value (corn (Zea mays); [19]) of the same compound?
Its value is 0.

And the “Corn plant response rating (0 to 100 scale)” value (corn (Zea mays); 125 g ai/ha)?
The value was 0.

And the “Blackgrass plant response rating” value [5, 19]?
The value was 0.

And the “Blackgrass plant response rating (0 to 100 scale)” value ([5]; 125 g ai/ha)?
Its value is 0.

What about the “Ryegrass, Italian plant response rating” value ([6]; 31 g ai/ha) of the same compound?
The value was 0.

And the “Ryegrass, Italian plant response rating” value ([6]; 125 g ai/ha)?
Its value is 0.

And the “Foxtail, Giant plant response rating” value [7, 19]?
Its value is 0.

What about the “Foxtail, Giant plant response rating (0 to 100 scale)” value ([7]; 125 g ai/ha) of the same compound?
Its value is 0.

What about the “Galium plant response rating” value [8, 19] of the same compound?
Its value is 0.

And the “Galium plant response rating (0 to 100 scale)” value ([8]; 125 g ai/ha)?
Its value is 90.

What about the “Wheat plant response rating” value ([9]; 31 g ai/ha) of the same compound?
Its value is 0.

What about the “Wheat plant response rating” value ([9]; 125 g ai/ha) of the same compound?
Its value is 0.

What about the “Plant response rating, Sedge, Umbrella” value [10] of the same compound?
Its value is 70.

What about the “Plant response rating, Barnyardgrass” value [11] of the same compound?
Its value is 0.

And the “Plant response rating, Rice” value (rice (Oryza sativa))?
The value was 10.

And the “Plant response rating, Ducksalad” value [12]?
The value was 85.

What about the “Plant response rating, Ragweed” value [13, 20] of the same compound?
Its value is 0.

What about the “Ragweed plant response rating” value ([13]; 125 g ai/ha) of the same compound?
The value was 0.

And the “Plant response rating, Kochia” value (kochia (Kochia scoparia) [14]; [20])?
Its value is 0.

What about the “Kochia plant response rating” value (kochia (Kochia scoparia) [14]; 125 g ai/ha) of the same compound?
Its value is 0.

And the “Plant response rating, Barnyardgrass” value [15, 20]?
The value was 0.

What about the “Barnyardgrass plant response rating” value ([15]; 125 g ai/ha) of the same compound?
The value was 70.

What about the “Plant response rating, Pigweed” value [16, 20] of the same compound?
The value was 0.

What about the “Pigweed plant response rating” value ([16]; 125 g ai/ha) of the same compound?
Its value is 50.

What about the “Plant response rating, Ryegrass, Italian” value [17, 20] of the same compound?
The value was 0.

And the “Ryegrass, Italian plant response rating” value ([17]; 125 g ai/ha)?
The value was 0.

What about the “Plant response rating, Foxtail, Giant” value [18, 20] of the same compound?
The value was 0.

And the “Foxtail, Giant plant response rating” value ([18]; 125 g ai/ha)?
Its value is 70.

Which results are given for `O=C(OCC1CCC1)c1c(Br)cccc1Oc1ncc(Cl)cn1` [Compound 8]?
Ragweed plant response rating (0 to 100 scale) ([1]; 125 g ai/ha): 10; Ragweed plant response rating (0 to 100 scale) ([1]; 500 g ai/ha): 40; Kochia plant response rating (0 to 100 scale) (kochia (Kochia scoparia) [2]; 125 g ai/ha): 40; Kochia plant response rating (0 to 100 scale) (kochia (Kochia scoparia) [2]; 500 g ai/ha): 80; Barnyardgrass plant response rating (0 to 100 scale) ([3]; 125 g ai/ha): 10; Barnyardgrass plant response rating (0 to 100 scale) ([3]; 500 g ai/ha): 40; Pigweed plant response rating (0 to 100 scale) ([4]; 125 g ai/ha): 50; Pigweed plant response rating (0 to 100 scale) ([4]; 500 g ai/ha): 90; Corn plant response rating (0 to 100 scale) (corn (Zea mays); 125 g ai/ha): 0; Corn plant response rating (0 to 100 scale) (corn (Zea mays); 500 g ai/ha): 20; Blackgrass plant response rating (0 to 100 scale) ([5]; 125 g ai/ha): 0; Blackgrass plant response rating (0 to 100 scale) ([5]; 500 g ai/ha): 20; Ryegrass, Italian plant response rating (0 to 100 scale) ([6]; 125 g ai/ha): 0; Ryegrass, Italian plant response rating (0 to 100 scale) ([6]; 500 g ai/ha): 30; Foxtail, Giant plant response rating (0 to 100 scale) ([7]; 125 g ai/ha): 30; Foxtail, Giant plant response rating (0 to 100 scale) ([7]; 500 g ai/ha): 60; Galium plant response rating (0 to 100 scale) ([8]; 125 g ai/ha): 60; Galium plant response rating (0 to 100 scale) ([8]; 500 g ai/ha): 90; Wheat plant response rating (0 to 100 scale) ([9]; 125 g ai/ha): 0; Wheat plant response rating (0 to 100 scale) ([9]; 500 g ai/ha): 0; Plant response rating, Sedge, Umbrella [10]: 70; Plant response rating, Barnyardgrass [11]: 0; Plant response rating, Rice (rice (Oryza sativa)): 0; Plant response rating, Ducksalad [12]: 0; Ragweed plant response rating ([13]; 125 g ai/ha): 0; Ragweed plant response rating ([13]; 500 g ai/ha): 0; Kochia plant response rating (kochia (Kochia scoparia) [14]; 125 g ai/ha): 0; Kochia plant response rating (kochia (Kochia scoparia) [14]; 500 g ai/ha): 0; Barnyardgrass plant response rating ([15]; 125 g ai/ha): 30; Barnyardgrass plant response rating ([15]; 500 g ai/ha): 100; Pigweed plant response rating ([16]; 125 g ai/ha): 10; Pigweed plant response rating ([16]; 500 g ai/ha): 60; Ryegrass, Italian plant response rating ([17]; 125 g ai/ha): 0; Ryegrass, Italian plant response rating ([17]; 500 g ai/ha): 30; Foxtail, Giant plant response rating ([18]; 125 g ai/ha): 100; Foxtail, Giant plant response rating ([18]; 500 g ai/ha): 100
